Experimental data published in patent US6399574B1 (priority 1997, dated 2002).
Where no end group is shown, it is not given here.

Test system: not given
Details: mouse, tissue homogenate

| Molecule | half-life [min] |
| --- | --- |
| CC[C@H](C)[C@H](NC(=O)[C@H](CC(N)=O)NC(=O)[C@H](CCC(=O)O)NC(=O)[C@H](CCCNC(=N)N)NC(=O)[C@H](C)NC(=O)[C@H](CC(C)C)NC(=O)[C@H](CCC(=O)O)NC(=O)[C@H](C)NC(=O)[C@H](C)NC(=O)[C@H](CCSC)NC(=O)[C@H](CCCCN)NC(=O)[C@H](C)NC(=O)[C@@H](NC(=O)[C@H](CCC(=O)O)NC(=O)[C@H](CCC(=O)O)NC(=O)[C@H](CCC(=O)O)NC(=O)CN)C(C)C)C(=O)N[C@@H](C)C(=O)N[C@@H](CCCCN)C(=O)NCC(=O)N[C@H]1CSSC[C@@H](C(=O)N[C@@H](Cc2ccc(O)cc2)C(=O)N2CCC[C@H]2C(=O)O)NC(=O)[C@H](CC(N)=O)NC(=O)[C@H](C(C)C)NC(=O)[C@H](CCCCN)NC1=O [ECon R] | 2.4 |

Target: NMDA receptor (spermine-stimulated [^3H]MK-801 binding)
Details: not given

| Molecule | IC50 [nM] | IC50 (μM) |
| --- | --- | --- |
| (A^7,10)1-12: Con G derivative, A at 7 and 10, residues 13-17 deleted (GEEELQANQALI; ends and bridges not checked; UniProt P07231 81-97, looked up, variant E7A E10A del13-17) | 300 |  |
| (A^7,10)1-13: Con G derivative, A at 7 and 10, residues 14-17 deleted (GEEELQANQALIR; ends and bridges not checked; UniProt P07231 81-97, looked up, variant E7A E10A del14-17) | 253 |  |
| (A^7,10,14)1-14: Con G derivative, A at 7, 10, 14, residues 15-17 deleted (GEEELQANQALIRA; ends and bridges not checked; UniProt P07231 81-97, looked up, variant E7A E10A E14A del15-17) | 232 |  |
| (A^7,10,14)1-15: Con G derivative, A at 7, 10, 14, residues 16-17 deleted (GEEELQANQALIRAK; ends and bridges not checked; UniProt P07231 81-97, looked up, variant E7A E10A E14A del16-17) | 34 |  |
| (A^7,10,14)1-16: Con G derivative, A at 7, 10, 14, residue 17 deleted (GEEELQANQALIRAKS; ends and bridges not checked; UniProt P07231 81-97, looked up, variant E7A E10A E14A del17-17) | 37 |  |
| (A^7,10,14)2-17: Con G derivative, A at 7, 10, 14, residue 1 deleted (EEELQANQALIRAKSN; ends and bridges not checked; UniProt P07231 81-97, looked up, variant del1-1 E7A E10A E14A) |  | inactive |
| (A^7,10,14)3-17: Con G derivative, A at 7, 10, 14, residues 1-2 deleted (EELQANQALIRAKSN; ends and bridges not checked; UniProt P07231 81-97, looked up, variant del1-2 E7A E10A E14A) |  | inactive |
| (A^7,10,14)4-17: Con G derivative, A at 7, 10, 14, residues 1-3 deleted (ELQANQALIRAKSN; ends and bridges not checked; UniProt P07231 81-97, looked up, variant del1-3 E7A E10A E14A) |  | inactive |
| (A^7,10,14)5-17: Con G derivative, A at 7, 10, 14, residues 1-4 deleted (LQANQALIRAKSN; ends and bridges not checked; UniProt P07231 81-97, looked up, variant del1-4 E7A E10A E14A) |  | inactive |
| (A^7,10,14)6-17: Con G derivative, A at 7, 10, 14, residues 1-5 deleted (QANQALIRAKSN; ends and bridges not checked; UniProt P07231 81-97, looked up, variant del1-5 E7A E10A E14A) |  | inactive |
| A^7,10,14: Con G derivative, A at positions 7, 10 and 14 (GEEELQANQALIRAKSN; ends and bridges not checked; UniProt P07231 81-97, looked up, variant E7A E10A E14A) | 88 |  |
| A^7,Y^10: Con G derivative, A at position 7 and Y at position 10 (GEEELQANQYLIREKSN; ends and bridges not checked; UniProt P07231 81-97, looked up, variant E7A E10Y) | 79 |  |
